Data reported in patent publication US9980986B2, “Methods of producing pancreatic hormones” (ViaCyte, Inc., priority 2006, dated 2018).

Experiments:
[1] = test system: activin receptor-like (ALK) receptor; assay: TGF-beta receptor family inhibitor added to cell cultures at stage 2 of differentiation; format: cell-based, human; settings: about 2.5, 5 and 10 μM added to the cell cultures at stage 2
Excerpt: The differentiation culture conditions were substantially similar to that described in d'Amour et al. 2006. d'Amour et al. 2006 describe a 5 step differentiation protocol: stage 1 (definitive endoderm; d 1-d 4), stage 2 (primitive gut tube or foregut endoderm; d 5 to d 8), stage 3 (posterior foregut or Pdx1 endoderm; d 9 to d 12), stage 4 (pancreatic endoderm, or pancreatic epithelium and endocrine precursor; d 13 to d 15) and stage 5 (hormone expressing endocrine cell, d 16 or more). As in d'Amour et al. 2006, the undifferentiated cells were cultured for one day (d 1) in RPMI containing 100 ng/ml Activin A (R&D Systems) and 25 ng/ml recombinant human WNT3a (R&D Systems), two days (d 2 and d 3) in RPMI medium containing 0.2% fetal bovine serum (FBS, Specialty Media) and 100 ng/ml Activin A. The embodiments described herein were slightly modified beginning at day 3 (d 3). The cells from day 3 (definitive endoderm) were cultured for three days (d 4 to d 6; foregut endoderm) in RPMI medium containing 2% FBS, 50 ng/ml recombinant human KGF/FGF7 (R&D Systems), and 0.25 μM KAAD-cyclopamine (Toronto Research Chemicals). Activin is removed from cells at this stage. […]

[2] = test system: Human embryonic stem cell lines; assay: hESC differentiation by 6-step 15-day protocol with or without Wnt3a in step 1, real-time quantitative PCR; format: cell-based; settings: Wnt3a 25 ng/mL added during the first step
Method: Human embryonic stem cell lines were also differentiated for 15 days via a 6-step protocol to achieve islet hormone-expressing cells. The first step comprised 3 days differentiation with either; i) activin A (100 ng/ml) or ii) activin A (100 ng/ml) and Wnt3a (25 ng/mL) to robustly produce DE (D'Amour, K., et al., Nature Biotechnology 23, 1534-1541, (2005)). Step 2 comprised 3 days differentiation in RPMI with 2% FBS containing FGF10 (50 ng/mL) and KAAD-cyclopamine (0.5 μM). Step 3 comprised 2 days differentiation in CMRL with B27 supplement (1:100) containing FGF10 (50 ng/mL), KAAD-cyclopamine (0.5 μM) and retinoic acid (2 μM). Step 4 comprised 2 days differentiation in CMRL with B27 supplement (1:100) containing retinoic acid (2 μM) and DAPT (1 μM). Step 5 comprised 2 days differentiation in CMRL with B27 supplement (1:100) containing DAPT (1 μM) and exendin 4 (40 ng/mL). Step 6 comprised 3 days differentiation in CMRL with B27 supplement (1:100) containing exendin 4 (40 ng/mL). Duplicate samples were taken from each plate at multiple time points and gene expression was analyzed by real-time quantitative PCR.

Row | Molecule | Effect on cell differentiation [1] | Effect on endocrine cell differentiation [2]
1 | NC(=O)c1ccc(-c2nc(-c3ccc4c(c3)OCO4)c(-c3ccccn3)[nH]2)cc1 [SB-431542] | potentiated cell differentiation | 
2 | Wnt3a: wingless-type MMTV integration site family member 3A (protein, UniProt P56704 19-352, looked up) Protein Wnt-3a: SYPIWWSLAVGPQYSSLGSQPILCASIPGLVPKQLRFCRNYVEIMPSVAEGIKIGIQECQHQFRGRRWNCTTVHDSLAIFGPVLDKATRESAFVHAIASAGVAFAVTRSCAEGTAAICGCSSRHQGSPGKGWKWGGCSEDIEFGGMVSREFADARENRPDARSAMNRHNNEAGRQAIASHMHLKCKCHGLSGSCEVKTCWWSQPDFRAIGDFLKDKYDSASEMVVEKHRESRGWVETLRPRYTYFKVPTERDLVYYEASPNFCEPNPETGSFGTRDRTCNVSSHGIDGCDLLCCGRGHNARAERRREKCRCVFHWCCYVSCQECTRVYDVHTCK |  | marked enhancement of endocrine cell differentiation
